System: 6-hydroxydopamine (6-OHDA) injury Parkinson's Disease mouse model
Experiment: Apomorphine-induced rotational behavior in unilateral striatal 6-OHDA injury mice
Format: in vivo
Conditions: intraperitoneal injection, 300 μL, 0.065 mg/mL, two weeks post-injury
Procedure: The details of these experiments are described below.
The mice underwent unilateral striatal 6-hydroxydopamine (6-OHDA) injection (3.2 μg/μL, 0.5 μL/min) according to Francardo et al. (Neurobiol. Dis. 42:327-340, 2011). […] The placement of a SEM graft over the skull of the mice was performed as described above. The duration of rotational behavior was determined in the treated mice.
The position of the mice was recorded by a camera (while they move freely in an arena). The number of contralateral rotations per minute was quantified using a custom analysis program written in Matlab and C++. Statistical analyses were performed using a Student's t-test to compare results between treatment groups (Stata v6.0).

CN1CCc2cccc3c2[C@H]1Cc1ccc(O)c(O)c1-3 [apomorphine]
rotational behavior (contralateral turns per minute): increased
